Laboratory results as given in patent publication US9173875B2, “Treatment for nicotine-induced lung disease using peroxisome proliferator-activated receptor gamma agonists” (Los Angeles Biomedical Research Institute at Harbor-UCLA …, priority 2006, dated 2015).
Read-outs that look alike come from different tables or passages of the source.

What was measured:
fetal ATII cells = assay: Ex vivo ATII cell proliferation assay (tetrazolium dye) after in utero nicotine; design: species or system Sprague-Dawley rat; conditions: nicotine 1 mg/kg in utero; vs control, P<0.05, n=6
Procedure: Pathogen-free timed (embryonic day 0=day of mating) pregnant Sprague-Dawley rats (200-250 g body wt) were obtained from Charles River (Hollister, Calif.) at embryonic day 3 and allowed to acclimatize until embryonic day 6. […] The fetuses were extracted by cesarean section, and the lungs were snap frozen for later analysis or processed for ATII cell or fibroblast culture. […] Louis, Mo.; 0.25 mg/kg). All studies were approved by the Los Angeles Biomedical Research Institute Institutional Review Board and were conducted in accordance with the National Institutes of Health Guide for the Care and Use of Laboratory Animals. ATII cells were isolated using differential adherence in monolayer culture, as described previously (Battenburg et al. (1990) Biochim. Biophys. Acta 960: 441-456). Briefly, three to five […] used per preparation. The fetuses were delivered via cesarean section, and fetal lungs were placed in Hanks' balanced salt solution without calcium and magnesium. […] A Teflon stirring bar was used to further dissociate the lungs by mechanical disruption of the tissue during incubation in a 37° C. water bath. After the tissue was dispersed into a unicellular suspension, the cells were pelleted at 500 g for 10 min at room temperature in a 50-ml polystyrene centrifuge tube. […] The cell suspension was then added to 75-cm^2 (T-75) culture flasks for 30-60 min to allow for differential adherence of lung fibroblasts. The unattached cells were then transferred to another T-75 culture flask for an additional 60 min. After this second culture period, the medium and nonadherent cells were removed from the flask and diluted with 1 vol of culture medium. This diluted suspension was cultured overnight in a T-75 culture flask at 37° C. in a CO2 incubator to allow the ATII cells to adhere. […] According to the manufacturer's protocol, cell proliferation was determined by the tetrazolium dye assay, which is based on the conversion of a tetrazolium salt to a red formazan product by living cells (Cell Proliferation Assay, Promega).

WI38 cells [1] = conditions: 7 days, vs control; for change in PTHrP receptor mRNA expression: means±SE
WI38 cells [2] = system: WI38 cells
Procedure: Lipogenic and myogenic status of cultured WI38 cells was assessed by simultaneous staining for lipid droplets and -SMA. Lipids were stained using oil red 0 staining, and -SMA expression was assessed by using anti-SMA (cat. no. A2547, 1:1,000, mouse monoclonal IgG2, Sigma) primary antibody. […] At the end of the experimental period, slides were fixed in freshly prepared 4% paraformaldehyde. Fixed slides were washed in PBS, blocked with 3% normal goat serum (Jackson Immunoresearch Lab) in PBS for 30 min at room temperature to block nonspecific binding, and then incubated in primary antibody overnight at 4° C. Secondary biotinylated anti-mouse IgG2 was used at 1:200 dilution for 30 min. The slides were then washed 3× with PBS and with double-distilled water 2× and were then incubated with oil red 0 (Sigma) for 15-30 min. Slides were rinsed 3× for 5 min and then mounted and coverslipped with Vestashield mounting medium with 4′,6′-diamidino-2-phenylindole (Vector Laboratories) visualization under a fluorescence microscope.

whole lung tissue = conditions: nicotine 2 mg/kg i.p. once daily to dam, e6 to e20
WI38 cells [3] = assay: Reversal experiment, immunofluorescence double staining (ADRP or lipid droplets and αSMA) in WI38 cells; assay type: cell-based, human
Procedure: Cells were grown in minimum essential medium (MEM) +10% fetal bovine serum at 37° C. in six-well plates, two well slides, and 60-mm and 100-mm culture dishes, as needed. […] Subsequently, the cells were treated with rosiglitazone (RGZ) (1×10^−5 M) (a PPARγ agonist), PTHrP (5×10^−7 M), or DBcAMP (1×10^−5 M) for 7 days, and the expression of PTHrP receptor, PPARγ, ADRP, calponin, and cSMA was determined by Western analysis and immunohistochemistry. Simultaneously, fibroblast function was characterized by measuring their capacity to take up triglycerides. Some experiments were performed in the presence of a specific PPARγ antagonist, GW9662. Medium containing fresh chemicals was added daily, and at the end of the experimental period the cells were processed as needed.
The lipogenic and myogenic status of cultured WI38 cells was assessed by simultaneous staining for either lipid droplets or ADRP and αSMA. Lipids were detected by using either oil red 0 staining or ADRP expression (polyclonal anti-ADRP 1:500), and αSMA expression was assessed by using anti-αSMA (1:1000, mouse monoclonal IgG2a, Sigma, catalog No. A2547) primary antibody. […] At the end of the experimental period, slides were fixed in freshly prepared 4% paraformaldehyde. […] Slides were rinsed three times for 5 min and then mounted and visualized under a fluorescence microscope.

ATII cells [4] = assay: Phospholipid synthesis ([3H]choline incorporation) by ATII cells treated in vitro; assay type: cell-based, rat; conditions: nicotine 1×10^−9 M, 24 h, in vitro
Procedure: (§1) Isolated ATII cells were cultured in DMEM+10% FBS in 6- and 96-well plates, 100-mm dishes, and T-75 flasks, as needed, and maintained at 37° C. in a humidified incubator containing 5% CO2-95% air. At 80-90% confluence, cells were processed for cell proliferation, differentiation, and metabolic studies (see below).
Incorporation of [methyl-3H]choline chloride (NEN Dupont) into saturated phosphatidylcholine was determined in monolayers of cultured explants and ATII cells. […] After incubation, explants and cells were washed three times with ice-cold PBS. The explants and the scraped cells were thoroughly homogenized, and the cellular lipids were extracted with chloroform-methanol (2:1) (Bligh and Dyer (1959) Can. J. Biochem. Physiol., 37: 911-917). The organic phase was dried under a stream of nitrogen at 60° C., resuspended in 0.5 ml of carbon tetrachloride containing 3.5 mg of osmium tetroxide, and left at room temperature for 15 min. The reaction mixture was redried under nitrogen and resuspended in 70 μl of chloroform-methanol (9:1, vol/vol). The lipid extracts were transferred to silica gel plates (Kodak, Rochester, N.Y.) and developed in a chloroform-methanolwater (65:25:4) solvent system. Pure dipalmitoyl phosphatidylcholine was used as the chromatographic standard. The developed plates were stained with bromothymol blue, blotted, and vacuum dried for 5 min at 90° C. Chromatogram spots corresponding to the migration of saturated phosphatidylcholine were scraped from the plates and counted by liquid scintillation spectrometry. The amounts of [methyl^3H]choline chloride incorporated into saturated phosphatidylcholine were expressed as disintegrations per minute per milligram of protein.

WI38 cells [5] = system: WI38 cells; remark: listed apart in the source
WI38 cells [6] = assay: Reversal experiment, triglyceride (triolein) uptake by WI38 cells; assay type: cell-based, human; conditions: nicotine 7 days
ATII cells [7] = assay: Western analysis of CCT-α and SP-B in ATII cells after in utero nicotine; assay type: in vivo, Sprague-Dawley rat
Procedure: Pathogen-free timed (embryonic day 0=day of mating) pregnant Sprague-Dawley rats (200-250 g body wt) were obtained from Charles River (Hollister, Calif.) at embryonic day 3 and allowed to acclimatize until embryonic day 6. […] The fetuses were extracted by cesarean section, and the lungs were snap frozen for later analysis or processed for ATII cell or fibroblast culture. […] Louis, Mo.; 0.25 mg/kg). All studies were approved by the Los Angeles Biomedical Research Institute Institutional Review Board and were conducted in accordance with the National Institutes of Health Guide for the Care and Use of Laboratory Animals. Protein extraction and Western blot analysis for SP-B and choline phosphate cytidylyltransferase-α (CCT-α) were performed using standard methods. […] Chemicon) overnight at 4° C. The antibody for CCT-α (1:2,000 dilution) was a kind gift from Dr. […] (University of Iowa, Iowa City, Iowa). […] The density of the SP-B and CCT-α bands was quantified using a scanning densitometer (Eagle Eye, Stratagene).

ATII cells [8] = assay: Western analysis of CCT-α and SP-B in ATII cells treated in vitro; assay type: cell-based, rat
Procedure: Protein extraction and Western blot analysis for SP-B and choline phosphate cytidylyltransferase-α (CCT-α) were performed using standard methods. […] Equal amounts of the protein from the supernatant were dissolved in electrophoresis sample buffer and subjected to SDS-polyacrylamide (4-12% gradient) gel electrophoresis followed by electrophoretic transfer to a nitrocellulose membrane. The membrane was blocked with 5% milk in 1× Tris-buffered saline containing 0.1% Tween 20 for 1 h and then incubated with rabbit anti-human SP-B polyclonal antibody (1:1,000 dilution; Chemicon) overnight at 4° C. The antibody for CCT-α (1:2,000 dilution) was a kind gift from Dr. Mallampalli (University of Iowa, Iowa City, Iowa). Subsequently, the membrane was washed with 1× Tris-buffered saline+0.1% Tween 20 and incubated with a 1:3,000 dilution of anti-rabbit horseradish peroxidase-linked whole antibody immunoglobulin G (Amersham, Arlington Heights, Ill.) for 1 h at room temperature, washed again, and developed with a chemiluminescent substrate (ECL, Amersham) following the manufacturer's protocol. The density of the SP-B and CCT-α bands was quantified using a scanning densitometer (Eagle Eye, Stratagene).

fetal rat lung explants = assay: In vitro ATII cell proliferation in lung explants (PCNA and SP-C labeling); assay type: cell-based; conditions: nicotine 24 h; P<0.05, n=4
Procedure: Explants derived from three to five litters of rats were used for each experiment during the course of the studies. Lungs were harvested from fetal rats under sterile conditions. The lung tissue was chopped into −1-mm cubes and incubated in 0.5 ml of Waymouth's MB-252/1 medium containing penicillin (100 U/ml)-streptomycin (100 U/ml) and Fungizone (2.5 μg/ml) in six-well plates while rocking on an oscillating platform (3 cycles/min) in 5% CO2-95% air at 37° C. The explants were allowed to attach for 1-2 h.
Cultured ATII cells or explants were treated with nicotine under various experimental conditions (see below), and cell proliferation was determined by Cell Proliferation Assay (Promega) or dual PCNA and SP-C labeling, respectively (see above).

[9] = system: fetal alveolar type II (ATII) cells; assay: In vivo ATII cell proliferation assay (PCNA and SP-C double labeling) after in utero nicotine; design: species or system Sprague-Dawley rat
ATII cells [10] = system: ATII cells
ATII cells [11] = system: ATII cells; remark: listed apart in the source
Procedure: as §1
Briefly, [1,2-^13C2]glucose was purchased with >99% enrichment for the specified carbon positions from Isotech (Miamisburg, Ohio). Lung ATII cells were isolated from embryonic day 20 pups from specified treatment groups and cultured in T-75 tissue culture flasks. […] The [^13C]glucose label is readily incorporated into various metabolites in mammalian cells, including ribonucleic acid (through ribose synthesis), lactate (through glycolysis), glutamate (through the tricarboxylic acid cycle), and palmitate (through the formation of acetyl-CoA). As the molecular weight (atomic mass unit) of these molecules increases on incorporation of the heavier ^13C atoms derived from [1,2,^13C2]glucose, they can be separated and quantitatively analyzed by gas chromatography-mass spectrometry (MS) on the basis of changes in their mass-to-charge ratios (m/z). […]
Fatty acids in the cell culture medium were extracted by saponification of the TRIzol cell extract after removal of the RNA-containing supernatant. […] Palmitate was monitored at ion cluster m/z 270. […]

ATII cells [12] = conditions: nicotine 24 h
[13] = nicotine 1×10^6 M (so in the source)

Q: Which results are given for CN1CCCC1c1cccnc1 (stereo not drawn) [nicotine]?
A: ATII cell proliferation, tetrazolium dye assay (fetal ATII cells): almost twofold increase; change in PTHrP receptor mRNA expression (WI38 cells [1]; [13]): 40±3%; change in ADRP mRNA expression (WI38 cells [1]; [13]): −47±4%; change in PPAR mRNA expression (WI38 cells [1]; [13]): −37±3%; change in α-SMA mRNA expression (WI38 cells [1]; [13]): +140±5%; change in PTHrP receptor mRNA expression (WI38 cells [1]; nicotine 1×10^−9 M): −33±8%; change in ADRP mRNA expression (WI38 cells [1]; nicotine 1×10^−9 M): −41±8%; change in PPAR mRNA expression (WI38 cells [1]; nicotine 1×10^−9 M): −26±7%; change in α-SMA mRNA expression (WI38 cells [1]; nicotine 1×10^−9 M): +38±4%; lipid droplet and α-SMA staining (WI38 cells [2]): decreased lipid staining and increased -SMA staining; αSMA mRNA expression in whole lung (whole lung tissue): significant increase; PTHrP receptor, PPARγ and ADRP mRNA expression in whole lung (whole lung tissue; vs controls, p<0.05): significant decrease; ADRP, lipid droplet and αSMA staining (WI38 cells [3]): marked decreases in ADRP and lipid droplet staining and a marked increase in αSMA staining; choline incorporation (ATII cells [4]): significantly increased; expression of nACh receptors α3 and α7 (WI38 cells [5]): significant increases; triolein uptake (WI38 cells [6]): significant decrease; steady-state SP-B protein level (ATII cells [7]; in utero nicotine, P<0.05, n=3): significantly increased; CCT-α protein expression (ATII cells [7]; in vivo nicotine exposure): significant increase; SP-B expression (ATII cells [8]; direct nicotine treatment of cultured ATII cells): significant increase; CCT-α protein expression (ATII cells [8]; in vitro nicotine exposure): significant increase; ATII cell proliferation in lung explants (fetal rat lung explants): significantly increased; increase in alveolar type II cell proliferation vs control group ([9]; nicotine 1 mg/kg i.p. once daily to dam, e6 to e20): 2 fold; ATII cell proliferation (PCNA and SP-C staining) ([9]; nicotine 1 mg/kg in utero, P<0.05, n=4): almost twofold increase; [13C]glucose labeling of the acetyl-CoA pool (ATII cells [10]; in utero nicotine): modest increase; de novo palmitate synthesis as a function of total palmitate (ATII cells [10]; rat, in vivo): almost doubled; ribose synthesis via the nonoxidative transketolase pathway (ATII cells [10]; rat, in vivo): significant decrease; ribose synthesis via the oxidative glucose-6-phosphate dehydrogenase pathway (ATII cells [10]; rat, in vivo): significant increase; de novo palmitate synthesis or [13C]glucose labeling of acetyl-CoA (ATII cells [11]): did not result in a significant change; ribose synthesis via the oxidative or the nonoxidative pathway (ATII cells [11]): did not alter; ATII cell proliferation, direct stimulation in vitro (ATII cells [12]): no effect
